According to patent US20080207521A1, “PEPTIDE LIGAND TO IMPAIR CANCER CELL MIGRATION” (priority 2005, published 2008):

How the values were obtained:
MDA-MB-468 cells [1] = assay: Adhesion of MDA-MB-468 breast cancer cells to collagen I (MTS); assay type: cell-based, human; conditions: pure peptide 100 μM; 60 min
Experimental: The adhesion assay was carried out as previously described (12). Briefly, cells were serum-depleted for 16 h, detached with Versene and allowed to adhere as single cells to collagen I for 60 (MDA-MB-468) or 90 min (HB2) at 37° C. Non-adherent cells were removed by washing with PBS. The adherent cells were incubated with a (3-(4,5-dimethylthiazol-2-yl)-5-(3-carboxymethoxyphenyl)-2-(-4-sulfophenyl)-2H-tetrazolium, inner salt (MTS) dye reduction assay (Promega, Madison, Wis.) and absorbance was measured at 490 nm using a Fluostar microplate reader from BMG LabTechnologies (GmbH, Offenberg, Germany). In each experiment a single value was calculated based on the mean of adhesion from six separate wells after the adhesion to plastic alone had been subtracted. The CM used as a control in the adhesion assays was obtained from confluent Wnt-5a overexpressing HB2 cells (for experiments with Wnt-5a antisense HB2 cells) or Wnt-5a overexpressing MCF-7 cells (for MDA-MB-468 cells) stably transfected with a vector over-expressing Wnt5a. A collected CM was always used within three days.
Peptide-induced effects on adhesion and DDR1 phosphorylation in MDA-MB-468 breast cancer cells. (A) Western blot analysis of Wnt-5a protein expression in Wnt-5a antisense and Wnt-5a over-expressing HB2 cells in comparison to MDA-MB-468 tumour cells. The blot is representative of 9 separate experiments. (B) Peptide-induced effects on MDA-MB-468 tumour cell adhesion. The cells were allowed to adhere to collagen type I-coated wells for 60 min in the absence or presence of 100 μM of the indicated peptides or CM. The amounts of adhesive cells were analyzed as described in the methods and the results are given as means±SEM of 8 separate experiments. (C) MDA-MB-468 cell adhesion to collagen I-coated wells in the absence or presence of peptide 175 or a peptide with same amino acid sequence except for a substitution of cysteine for alanine (175Ala) or CM. The amount of adherent cells was estimated as in panel A and expressed as means±SEM of 6 separate experiments, ns=not significant, ** p<0.01 and *** p<0.001. (D) Single MDA-MB-468 cells were allowed to adhere to collagen I-coated plates for 60 min in the absence or presence of the indicated peptides (100 μM), CM or recombinant Wnt-5a (0.8 µg/ml). DDR1 immunoprecipitates were Western blotted with first an anti-phosphotyrosine Ab and then after stripping with an anti-DDR1 Ab. The blots shown are representative of 6 separate experiments.
(§1) Effects of peptide 175 modifications on its ability to induce MDA-MB-468 tumour cell adhesion and migration. (A) The cells were allowed to adhere for 60 min to collagen-I coated wells in the absence or presence of peptide 175, three stepwise N-terminal deletion variants of peptide 175 or a formylated version of the tested hexapeptide derived from peptide 175. The amounts of adhesive cells were analyzed as described in the methods and the results are given as means±SEM of 6 separate experiments. (B and C) The cells were allowed to migrate for 18 h in the absence or presence of 1 or 10 μM of peptide 175 (B) or the formylated hexapeptide (C). The data are given as means±SEM of 6 separate experiments, each performed in triplicate. * p<0.05, p<0.01.

MDA-MB-468 cells [2] = assay: Migration of MDA-MB-468 cells in modified Boyden chamber; assay type: cell-based, human; conditions: 18 h; for migration: pure peptide 100 μM
Experimental: The HB2 mammary epithelial cell line, a subclone of the MTSV-1.7 cell line, originating from the laboratory of Dr. J. Taylor-Papadimitriou (11) was used. The HB2 cells were cultured in DMEM supplemented with 10% FBS, 5 U/mi penicillin, 0.5 U/ml streptomycin, 2 mM glutamine, 10 μg/ml bovine insulin and 5 μg/ml hydrocortisone. The human mammary carcinoma cell lines MCF-7 and MDA-MB-468 were cultured in DMEM supplemented with 10% FBS, 5 U/ml penicillin, 0.5 U/ml streptomycin and 2 mM glutamine. The pH-experiments were done in MEM supplemented with 10 mM Tris, 0.5% BSA, 5 U/ml penicillin, 0.5 U/ml streptomycin and 2 mM glutamine. The pH 7.4-medium was further supplemented with 4 mM sodium bicarbonate whereas the pH 6.7-medium was not. All cells were incubated at 37° C. in 95% air and 5% CO2.
Cell migration analyses were performed in a modified Boyden chamber with a polycarbonate membrane (10 μm thick with a porous diameter of 8.0 μm) separating the two chambers (Transwell®; Costar, Cambridge, Mass.). As indicated in some experiments the membranes were coated with collagen by adding collagen-I (10 μg/ml) diluted in 0.25% acetic acid to the upper chamber for 1 h at 37° C., after which it was washed three times with PBS. Each experiment was initiated by detaching the cells by Versene treatment for 10-20 min at 37° C., washed, and re-suspended as a single cell suspension in serum-free DMEM medium supplemented with 0.5% BSA. Together with the indicated agonist a 0.2 ml cell suspension (containing 25,000 MDA-MB-468 or 50,000 HB2 cells) was then added to the upper chamber of the transwell. The lower chamber was filled with 0.6 ml serum-free but BSA-containing DMEM medium supplemented with 1 ng/ml of the chemoattractant IGF-I. As a control, IGF-I was excluded in some wells in each separate experiment. The cells were allowed to migrate in the Boyden chamber for 18 h at 37° C. in a humidified atmosphere of 95% air and 5% CO2. The experiments were terminated by removing the non-migratory cells with a cotton-tipped applicator from the upper surface of the membranes. The remaining cells on the lower surface that had migrated through the membrane were stained for 20 min with 0.5% crystal violet diluted in 20% methanol/80% water. After washing the membranes the number of stained cells per membrane and well was counted in an inverted microscope. The value from each separate experiment represents the median value of three individual wells.
Peptide-induced effects on MDA-MB-468 tumour cell migration and their content of F-actin. (A) The cells were allowed to migrate for 18 h in the absence or presence of the indicated peptides (100 μM) The data in panel A are expressed as means±SEM of 8 separate experiments, each performed in triplicate. * p<0.05. (B) The cells were allowed to adhere to collagen I-coated cover glasses for 18h in the absence or presence of peptide 175 (100 μM). The cells were then stained with Alexa488-Phalloidin as described in the methods section. The illustrated micrographs are representative of 5 separate experiments.
as §1
Effects of Frz-5 receptor blocking and reduced pH on the abilities of the formylated hexapeptide and Wnt-5a to inhibit tumour cell migration. […]

Sequence: ADFRKVGDALKEKYD [peptide 169, Wnt-5a aa 242-256]
- adhesion to collagen I (MDA-MB-468 cells [1]): significantly increased
- migration (MDA-MB-468 cells [2]): significantly decreased the migration

Sequence: NKTSEGMDGCEL (Human) [peptide 175, Wnt-5a aa 311-322]
- adhesion to collagen I (MDA-MB-468 cells [1]): significantly increased
- motility (migration) (MDA-MB-468 cells [2]; 10 μM): significantly impaired the motility
- migration (MDA-MB-468 cells [2]): significantly decreased the migration

Sequence: SQLAGLSQGQKKL [peptide 171, Wnt-5a aa 55-67; negative control]
- migration (MDA-MB-468 cells [2]): no statistically significant effect
